The OligoGym collection
“And” between values parts separate entries of the source, which are not always exact repeats. Equal values may be shown once. After the bases stand the sugars from the 5' end (letter, count) and the backbone: PS all phosphorothioate, else s phosphorothioate and o phosphodiester by linkage. Methylation of C is not given here. e = 2'-O-(2-methoxyethyl) (MOE); k = constrained ethyl (cEt); d = 2'-deoxy (DNA)

Target: IRF4
Conditions: ASO

| Sequence | target mRNA inhibition (SK-MEL-28, 4 µM) | target mRNA inhibition (MM.1R, 1 µM) | also measured |
| --- | --- | --- | --- |
| CAAGAACTGCAGCTCC (sugars k3 d10 k3, PS) | 47% | – | – |
| CAAGACAAATCTTCTG (sugars k3 d10 k3, PS) | 13% | – | – |
| CAAGACAAGGGTTTGA (sugars k3 d10 k3, PS) | – | -3% | – |
| CAAGAGGTGCGAGTAC (sugars k3 d10 k3, PS) | 22% | – | – |
| CAAGATCGAGCGGTGA (sugars k3 d10 k3, PS) | 38% | – | – |
| CAAGCAGTGATGTCAG (sugars kkddddddddddkeke, PS) | – | 20% and 26% | – |
| CAAGCAGTGATGTCAG (sugars kkdddddddddekeke, PS) | – | 26% and 34% | – |
| CAAGGATAACCTGAAC (sugars k3 d10 k3, PS) | 26% | – | – |
| CAAGTGTCTAAAGTCC (sugars k2 d9 e3 k2, PS) | – | 22% and 31% | – |
| CAAGTGTCTAAAGTCC (sugars kkdddddddddkekek, PS) | – | 15% and 6% | – |
| CAAGTGTCTTCCACAA (sugars k3 d10 k3, PS) | 65% | – | – |
| CAATAAAATGTCACGC (sugars k3 d10 k3, PS) | 47% | – | – |
| CAATACTGTAAGGGCT (sugars k3 d10 k3, PS) | 56% | – | – |
| CAATCATGATATTAGA (sugars k3 d10 k3, PS) | 38% | – | – |
| CAATGATGGCAGTCTA (sugars k3 d10 k3, PS) | 40% | – | – |
| CAATGGAGATACTTGT (sugars k3 d10 k3, PS) | – | -16% | – |
| CAATTGAAATGGAGCA (sugars k3 d10 k3, PS) | 26% | – | – |
| CACAAAGCGGGTTCAC (sugars k3 d10 k3, PS) | – | -12% | – |
| CACAAGCATAAAAGGT (sugars k3 d10 k3, PS) | 26% | – | – |
| CACAAGTGGCCTTCCT (sugars k3 d10 k3, PS) | 45% | – | – |
| CACACTGCCGTGATCT (sugars k3 d10 k3, PS) | – | 20% | – |
| CACATCACTTGGTCAA (sugars k3 d10 k3, PS) | 72% | – | – |
| CACCACCTCGAGGCCA (sugars k3 d10 k3, PS) | 24% | – | – |

| Sequence | target mRNA inhibition (SK-MEL-28, 4 µM) | target mRNA inhibition (MM.1R, 1 µM) | also measured |
| --- | --- | --- | --- |
| CACCACTATTCGAGAG (sugars k3 d10 k3, PS) | 48% | – | – |
| CACCATGGCACAGTCT (sugars k3 d10 k3, PS) | 79% | – | – |
| CACCCACACAAGTCTT (sugars k3 d10 k3, PS) | 9% | – | – |
| CACCTGATCTTGCTGC (sugars k3 d10 k3, PS) | – | 12% | – |
| CACGAGGTTGCCGAGA (sugars k3 d10 k3, PS) | 64% | 48% | target mRNA inhibition (MM.1R, 0.0625 µM): -3%; target mRNA inhibition (MM.1R, 0.074 µM): 4%; target mRNA inhibition (MM.1R, 0.222 µM): 7%; target mRNA inhibition (MM.1R, 0.25 µM): 9%; target mRNA inhibition (MM.1R, 0.666 µM): 22%; target mRNA inhibition (MM.1R, 2 µM): 34%; target mRNA inhibition (MM.1R, 4 µM): 62% |
| CACGGACGAACGCGCA (sugars k3 d10 k3, PS) | -2% | – | – |
| CACTAAAGACTATTAG (sugars k3 d10 k3, PS) | 5% | – | – |
| CACTAAGCTTGATAAA (sugars k3 d10 k3, PS) | -11% | – | – |
| CACTAATACCTACCTG (sugars k3 d10 k3, PS) | 6% | – | – |
| CACTATGCCTGAACTG (sugars k3 d10 k3, PS) | 10% | – | – |
| CACTGGCATTGAGACG (sugars k3 d10 k3, PS) | 69% and 76% | – | – |
| CAGAACTAATGTCCCC (sugars k3 d10 k3, PS) | 69% | – | – |
| CAGAAGGGCAACAGTT (sugars k3 d10 k3, PS) | 38% | – | – |
| CAGAATGGCGAGTTGG (sugars k3 d10 k3, PS) | – | 31% | – |
| CAGAATGTTTCGACAT (sugars k3 d10 k3, PS) | – | 14% | – |
| CAGACATACCTACAAG (sugars k3 d10 k3, PS) | 44% | – | – |
| CAGATAGTTAAGTACT (sugars k3 d10 k3, PS) | 44% | – | – |
| CAGCAAAGAGGGTCAC (sugars k3 d10 k3, PS) | 61% | – | – |
| CAGCAACTCCCTTGGG (sugars k3 d10 k3, PS) | 23% | – | – |
| CAGCACCGTGGTGCGA (sugars k3 d10 k3, PS) | – | -27% | – |
| CAGCACTCAGATTCTA (sugars k3 d10 k3, PS) | 12% | – | – |
| CAGCATAGCATTATCT (sugars k3 d10 k3, PS) | -51% | – | – |
| CAGCATGACAGGGCGA (sugars k3 d10 k3, PS) | 56% | – | – |

| Sequence | target mRNA inhibition (SK-MEL-28, 4 µM) | target mRNA inhibition (MM.1R, 1 µM) | also measured |
| --- | --- | --- | --- |
| CAGCCGAAGCATTTTA (sugars k3 d10 k3, PS) | – | 0% | – |
| CAGGAGAGCCCCTACC (sugars k3 d10 k3, PS) | – | -8% | – |
| CAGGAGCGCGGAGGGC (sugars k3 d10 k3, PS) | 11% | – | – |
| CAGGTTTCATTTCATT (sugars k4 d8 k4, PS) | 54% | – | target mRNA inhibition (MM.1R, 0.074 µM): 2%; target mRNA inhibition (MM.1R, 0.222 µM): 3%; target mRNA inhibition (MM.1R, 0.666 µM): 19%; target mRNA inhibition (MM.1R, 2 µM): 15%; target mRNA inhibition (SK-MEL-28, 0.185 µM): 14% and 13% and 18%; target mRNA inhibition (SK-MEL-28, 5 µM): 57% and 55% and 67%; target mRNA inhibition (SK-MEL-28, 15 µM): 74% and 72% |
| CAGTAAACGCAAGTCT (sugars k3 d10 k3, PS) | – | -14% | – |
| CAGTAAGAGGGCAGTC (sugars k3 d10 k3, PS) | 50% | – | – |
| CAGTGACTTGCATCCA (sugars k2 d9 e3 k2, PS) | – | 28% | – |
| CAGTGACTTGCATCCA (sugars k3 d10 k3, PS) | – | 53% and 38% | target mRNA inhibition (MM.1R, 0.0625 µM): 40% and 20%; target mRNA inhibition (MM.1R, 0.25 µM): 43% and 24%; target mRNA inhibition (MM.1R, 4 µM): 75% and 61% |
| CAGTGATGTCAGGTTT (sugars kddddddddddkekek, PS) | – | 46% | – |
| CAGTGATGTCAGGTTT (sugars kkddddddddddkeke, PS) | – | 41% | – |
| CAGTGATGTCAGGTTT (sugars kkdddddddddekeke, PS) | – | 47% | – |
| CAGTGATGTCAGGTTT (sugars kkkdddddddddkeke, PS) | – | 34% | – |
| CAGTGCTCTTTAACAA (sugars k3 d10 k3, PS) | 37% | – | – |
| CAGTGGTGGCCGCGGG (sugars k3 d10 k3, PS) | 27% | – | – |
| CAGTTCTAAGCATTGC (sugars k3 d10 k3, PS) | 33% | – | – |
| CAGTTGTAAATGAGTC (sugars kddddddddddkekek, PS) | – | 65% | target mRNA inhibition (H929, 0.00067 µM): 16%; target mRNA inhibition (H929, 0.002 µM): 25%; target mRNA inhibition (H929, 0.00667 µM): 52%; target mRNA inhibition (H929, 0.02 µM): 68%; target mRNA inhibition (H929, 0.04 µM): 38%; target mRNA inhibition (KMS11, 0.2 µM): 77% and 89%; target mRNA inhibition (MM.1R, 0.074 µM): 18%; target mRNA inhibition (MM.1R, 0.222 µM): 44%; target mRNA inhibition (MM.1R, 0.666 µM): 63%; target mRNA inhibition (MM.1R, 2 µM): 85% |
| CAGTTGTAAATGAGTC (sugars kkdddddddddekeke, PS) | – | 72% | target mRNA inhibition (H929, 0.00067 µM): 1%; target mRNA inhibition (H929, 0.002 µM): 27%; target mRNA inhibition (H929, 0.00667 µM): 45%; target mRNA inhibition (H929, 0.02 µM): 60%; target mRNA inhibition (H929, 0.04 µM): 34%; target mRNA inhibition (KMS11, 0.2 µM): 83% and 90%; target mRNA inhibition (MM.1R, 0.074 µM): 12%; target mRNA inhibition (MM.1R, 0.222 µM): 39%; target mRNA inhibition (MM.1R, 0.666 µM): 65%; target mRNA inhibition (MM.1R, 2 µM): 88% |
| CAGTTGTAAATGAGTC (sugars kkdddddddddkdkdk, PS) | – | 46% | – |
| CAGTTGTAAATGAGTC (sugars kkdddddddddkekek, PS) | – | 81% | target mRNA inhibition (H929, 0.00067 µM): 22%; target mRNA inhibition (H929, 0.002 µM): 41%; target mRNA inhibition (H929, 0.00667 µM): 67%; target mRNA inhibition (H929, 0.02 µM): 74%; target mRNA inhibition (H929, 0.04 µM): 40%; target mRNA inhibition (KMS11, 0.2 µM): 83% and 93%; target mRNA inhibition (MM.1R, 0.074 µM): 28%; target mRNA inhibition (MM.1R, 0.222 µM): 55%; target mRNA inhibition (MM.1R, 0.666 µM): 78%; target mRNA inhibition (MM.1R, 2 µM): 91% |
| CATAAAAGGTTCCTGT (sugars k3 d10 k3, PS) | 9% | – | – |
| CATAATCCAGTATCTG (sugars k3 d10 k3, PS) | 18% | – | – |
| CATAGAGCCAGAGCAG (sugars k3 d10 k3, PS) | 60% | – | – |
| CATAGCATTATCTACC (sugars k3 d10 k3, PS) | 43% | – | – |

| Sequence | target mRNA inhibition (SK-MEL-28, 4 µM) | target mRNA inhibition (MM.1R, 1 µM) | also measured |
| --- | --- | --- | --- |
| CATATACATTGAGGCA (sugars k3 d10 k3, PS) | – | 20% | – |
| CATCAATCATGATATT (sugars k3 d10 k3, PS) | 25% | – | – |
| CATCACCGAACACACC (sugars k3 d10 k3, PS) | 24% | – | – |
| CATCAGAAATCACGAG (sugars k3 d10 k3, PS) | 55% | – | – |
| CATCCTGCTTCCAGTG (sugars k3 d10 k3, PS) | 30% | – | – |
| CATCTAATCCACAATC (sugars k3 d10 k3, PS) | – | -19% | – |
| CATGATAAGGCACTAC (sugars k3 d10 k3, PS) | – | -6% | – |
| CATGATATTAGAGACT (sugars k3 d10 k3, PS) | 56% | – | – |
| CATTCACACTGCCGTG (sugars k3 d10 k3, PS) | – | 6% | – |
| CATTGAGGCATACAGT (sugars k3 d10 k3, PS) | 55% | – | – |
| CATTGGACCCACGAAG (sugars k3 d10 k3, PS) | 28% | – | – |
| CATTGGAGGAGGGTTG (sugars k3 d10 k3, PS) | -2% | – | – |
| CATTTCATTTAATGTC (sugars k3 d10 k3, PS) | 33% | – | – |
| CCAAAGTTACATCCTA (sugars k3 d10 k3, PS) | 39% | – | – |
| CCAACTTAAAATCCAC (sugars k3 d10 k3, PS) | 9% | – | – |
| CCAACTTATAGCACTC (sugars k3 d10 k3, PS) | – | 14% | – |
| CCAAGAGGTGCGAGTA (sugars k3 d10 k3, PS) | 33% | – | – |
| CCAAGCCTAGAGGTGC (sugars k3 d10 k3, PS) | – | 21% | – |
| CCAATTTATGCCATGG (sugars k3 d10 k3, PS) | 12% | – | – |
| CCACACCAGGAAACCG (sugars k3 d10 k3, PS) | 14% | – | – |
| CCACAGAGGACTTCGG (sugars k3 d10 k3, PS) | 27% | – | – |
